Molecules are shown by their SMILES. Some results are limits rather than exact numbers.

In the assay the target is GABAA receptor ([35S]-TBPS binding, rat brain cortical membranes). The assay can be described thus: Steroid inhibition of [35S]-TBPS binding (radioligand displacement). The following applies: 3 nM [35S]-TBPS, in the presence of 5 μM GABA. As to the method:
TBPS binding assays using rat brain cortical membranes in the presence of 5 μM GABA has been described (Gee et al, J. Pharmacol. Exp. Ther. 1987, 241, 346-353; Hawkinson et al, Mol. Pharmacol. 1994, 46, 977-985; Lewin, A. H et al., Mol. Pharmacol. 1989, 35, 189-194).
Briefly, cortices are rapidly removed following decapitation of carbon dioxide-anesthetized Sprague-Dawley rats (200-250 g). The cortices are homogenized in 10 volumes of ice-cold 0.32 M sucrose using a glass/teflon homogenizer and centrifuged at 1500×g for 10 min at 4° C. The resultant supernatants are centrifuged at 10,000×g for 20 min at 4° C. to obtain the P2 pellets. The P2 pellets are resuspended in 200 mM NaCl/50 mM Na—K phosphate pH 7.4 buffer and centrifuged at 10,000×g for 10 min at 4° C. This washing procedure is repeated twice and the pellets are resuspended in 10 volumes of buffer. Aliquots (100 μL) of the membrane suspensions are incubated with 3 nM [^35S]-TBPS and 5 μL aliquots of test drug dissolved in dimethyl sulfoxide (DMSO) (final 0.5%) in the presence of 5 μM GABA. The incubation is brought to a final volume of 1.0 mL with buffer. Nonspecific binding is determined in the presence of 2 μM unlabeled TBPS and ranged from 15 to 25%. Following a 90 min incubation at room temp, the assays are terminated by filtration through glass fiber filters (Schleicher and Schuell No. 32) using a cell harvester (Brandel) and rinsed three times with ice-cold buffer. Filter bound radioactivity is measured by liquid scintillation spectrometry. Non-linear curve fitting of the overall data for each drug averaged for each concentration is done using Prism (GraphPad). […] The concentration of test compound producing 50% inhibition (IC50) of specific binding and the maximal extent of inhibition (Imax) are determined for the individual experiments with the same model used for the overall data and then the means ±SEM.s of the individual experiments are calculated.
Various compounds are or can be screened to determine their potential as modulators of [^35S]-TBPS binding in vitro. These assays are or can be performed in accordance with the above discussed procedures.
`COC[C@]12CC[C@@](C)(O)C[C@@H]1CC[C@H]1[C@@H]3CC[C@H](C(=O)Cn4ncc5cccc(OC)c54)[C@@]3(C)CC[C@@H]12` [Compound 41]: the IC50 is 50 to 100 nM.
`COC[C@]12CC[C@@](C)(O)C[C@@H]1CC[C@H]1[C@@H]3CC[C@H](C(=O)Cn4nnc5cc(Cl)cnc54)[C@@]3(C)CC[C@@H]12` [Compound 12]: the IC50 is under 10 nM.
For `COC[C@]12CC[C@@](C)(O)C[C@@H]1CC[C@H]1[C@@H]3CC[C@H](C(=O)Cn4cc5ccc(OC)cc5n4)[C@@]3(C)CC[C@@H]12` [Compound 48] the value was 50 to 100 nM.
For `COC[C@]12CC[C@@](C)(O)C[C@@H]1CC[C@H]1[C@@H]3CC[C@H](C(=O)Cn4ncc5c(OC)cccc54)[C@@]3(C)CC[C@@H]12` [Compound 45], the IC50 is 50 to 100 nM.
Regarding `COC[C@]12CC[C@@](C)(O)C[C@@H]1CC[C@H]1[C@@H]3CC[C@H](C(=O)Cn4cc(OC)cn4)[C@@]3(C)CC[C@@H]12` [Compound 37], the IC50 lay within 100 to 500 nM.
In the case of `CC(C)OC[C@]12CC[C@@](C)(O)C[C@H]1CC[C@H]1[C@@H]3CC[C@H](C(=O)Cn4nnc5ccc(F)c(F)c54)[C@@]3(C)CC[C@@H]12` [Compound 69], the IC50 is under 10 nM.
Then `COC[C@]12CC[C@@](C)(O)C[C@@H]1CC[C@H]1[C@@H]3CC[C@H](C(=O)Cn4cc(C(=O)O)nn4)[C@@]3(C)CC[C@@H]12` [Compound 82], with over 500 nM.
Then `COC[C@]12CC[C@@](C)(O)C[C@@H]1CC[C@H]1[C@@H]3CC[C@H](C(=O)Cn4ncc5cc(OC)ccc54)[C@@]3(C)CC[C@@H]12` [Compound 43], with 50 to 100 nM; and `CCOC(=O)c1cn(CC(=O)[C@H]2CC[C@H]3[C@@H]4CC[C@H]5C[C@](C)(O)CC[C@]5(COC)[C@H]4CC[C@]23C)nn1` [Compound 80], with 100 to 500 nM.

These data come from patent US10329320B2, “Neuroactive steroids, compositions, and uses thereof” (Sage Therapeutics, Inc., priority 2015, dated 2019).
